Activity calls are given as the source filed them. No cut-off for these calls is given here.
Columns and labels:
Acetylcholinesterase [1] = target: T1, Acetylcholinesterase (Homo sapiens, UniProt P22303)
Description: (§1) Inhibition of human AChE by Ellmans test

Acetylcholinesterase [2] = target: T1, Acetylcholinesterase; remark: listed apart in the source
Description: as §1

Caenorhabditis elegans = test: Inhibition of ACh release in Caenorhabditis elegans N2 N2; type: functional, organism-based

T1 sequence (P22303 whole entry): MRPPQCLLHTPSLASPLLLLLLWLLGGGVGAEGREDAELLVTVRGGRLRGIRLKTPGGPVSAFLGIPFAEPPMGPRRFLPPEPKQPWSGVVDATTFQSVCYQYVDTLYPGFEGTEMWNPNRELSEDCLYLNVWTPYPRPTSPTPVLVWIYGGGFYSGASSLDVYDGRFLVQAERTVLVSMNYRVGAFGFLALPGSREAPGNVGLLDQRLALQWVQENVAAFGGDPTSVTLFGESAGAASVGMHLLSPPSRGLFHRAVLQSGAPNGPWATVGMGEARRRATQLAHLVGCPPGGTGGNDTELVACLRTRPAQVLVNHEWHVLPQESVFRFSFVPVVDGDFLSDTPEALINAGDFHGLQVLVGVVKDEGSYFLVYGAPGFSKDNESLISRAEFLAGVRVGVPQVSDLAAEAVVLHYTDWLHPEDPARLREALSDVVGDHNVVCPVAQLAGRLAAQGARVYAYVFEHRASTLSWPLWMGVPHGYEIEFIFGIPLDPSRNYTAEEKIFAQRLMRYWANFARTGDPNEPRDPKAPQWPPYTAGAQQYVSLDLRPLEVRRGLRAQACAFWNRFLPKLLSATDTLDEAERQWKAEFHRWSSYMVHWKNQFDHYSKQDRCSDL

| Compound | logIC50 (Acetylcholinesterase [1]) | IC50 (Acetylcholinesterase [2]) | inhibition (Caenorhabditis elegans) |
| --- | --- | --- | --- |
| C[C@]12CCNC1Nc1ccc(OC(=O)Nc3ccccc3)cc12 (stereo partly drawn) | 2.36 | – | – |
| CN1CC[C@@]2(C)c3cc(OC(=O)N4CCc5ccccc5C4)ccc3N(C)[C@@H]12 [QUILOSTIGMINE] | – | 148 nM | – |
| Cc1ccccc1NC(=O)Oc1ccc2c(c1)[C@]1(C)CCNC1N2C (stereo partly drawn) | 1.23 | – | – |
| Cc1cccc(NC(=O)Oc2ccc3c(c2)[C@]2(C)CCN(C)[C@@H]2N3C)c1C | 1.36 | – | – |
| CC(C)c1ccc(NC(=O)Oc2ccc3c(c2)[C@]2(C)CCN(C)C2N3Cc2ccccc2)cc1 (stereo partly drawn) | 4.11 | – | – |
| CN(C(=O)Oc1ccc2c(c1)[C@]1(C)CCN(C)[C@@H]1N2C)c1ccccc1 | 2.46 | 285 nM | – |
| Cc1ccccc1NC(=O)Oc1ccc2c(c1)C1(C)COC(C1)O2 (stereo not drawn) | 1.75 | – | – |
| CN1CC[C@]2(C)c3cc(OC(=O)Nc4ccccc4)ccc3N(C)C12 (stereo partly drawn) | 3.54 | – | – |
| CCNC(=O)Oc1ccc2c(c1)[C@]1(C)CCN(C)[C@@H]1N2C | 1.97 | – | – |
| CCNC(=O)Oc1ccc2c(c1)[C@]1(C)CCO[C@@H]1N2C | 1.91 | – | – |
| Cc1ccc(NC(=O)Oc2ccc3c(c2)[C@]2(C)CCN(C)[C@@H]2N3C)cc1C | 1.49 | – | – |
| CNC(=O)Oc1ccc2c(c1)[C@@]1(C)CCN(C)C1N2Cc1ccccc1 (stereo partly drawn) | 3.45 | – | – |
| Cc1ccc(NC(=O)Oc2ccc3c(c2)[C@]2(C)CCN(C)[C@@H]2N3C)cc1 | 2.15 | – | – |
| CN1CC[C@]2(C)c3cc(OC(=O)Nc4ccccc4)ccc3N(Cc3ccccc3)C12 (stereo partly drawn) | 4.05 | – | – |
| CNC(=O)Oc1ccc2c(c1)[C@]1(C)CCO[C@@H]1N2C | 1.43 | – | – |
| C[C@@]12CCN(Cc3ccccc3)[C@@H]1N(Cc1ccccc1)c1ccc(OC(=O)Nc3ccccc3)cc12 | 4.61 | 41100 nM | – |
| Cc1ccc(C)c(NC(=O)Oc2ccc3c(c2)[C@]2(C)CCN(C)[C@@H]2N3C)c1 | 1.42 | – | – |
| CNC(=O)Oc1ccc2c(c1)[C@]1(C)CCN(C)C1N2Cc1ccccc1 (stereo partly drawn) | 2.21 | – | – |
| CNC(=O)Oc1ccc2c(c1)[C@]1(C)CCN(C)[C@@H]1N2 | 1.75 | 56.7 nM | – |
| CNC(=O)Oc1ccc2c(c1)[C@]1(C)CCN(C)[C@@H]1N2C=O | 3.4 | 2500 nM | – |

| Compound | logIC50 (Acetylcholinesterase [1]) | IC50 (Acetylcholinesterase [2]) | inhibition (Caenorhabditis elegans) |
| --- | --- | --- | --- |
| Cc1cc2c(cc1OC(=O)Nc1ccccc1)[C@]1(C)CCN(C)[C@@H]1N2C | 2.41 | – | – |
| CN(C)Cc1cc2c(cc1OC(=O)Nc1ccccc1)[C@]1(C)CCN(C)[C@@H]1N2C | 2.89 | 780 nM | – |
| Cc1ccccc1NC(=O)Oc1ccc2c(c1)[C@]1(C)CCN(C)C1N2Cc1ccccc1 (stereo partly drawn) | 2 | – | – |
| O=C(Nc1ccccc1Cl)Oc1ccc2c(c1)CCCN2Cc1ccccc1 | – | 3310 nM | – |
| Cc1cc(C)cc(NC(=O)Oc2ccc3c(c2)[C@]2(C)CCN(C)[C@@H]2N3C)c1 | 1.89 | – | – |
| Cc1ccccc1NC(=O)Oc1ccc2c(c1)[C@]1(C)CCN(C)[C@@H]1N2C [TOLSERINE] | 1 | 40 nM | – |
| CNC(=O)Oc1ccc2c(c1)[C@]1(C)CCN(C)[C@@H]1N2Cc1ccccc1 | 2.21 | 161 nM | – |
| CNC(=O)Oc1ccc2c(c1)CC[C@@H]1CCN(C)[C@H]21 | – | 17.3 nM | – |
| CNC(=O)Oc1ccc2c(c1)OC[C@@H]1CCN(C)[C@H]21 | – | 30 nM | – |
| CNC(=O)Oc1ccc2c(c1)[C@]1(C)CCN(Cc3ccccc3)C1N2Cc1ccccc1 (stereo partly drawn) | 3.04 | – | – |
| CCOC(=O)C1=CN(C)c2cccc(OC(=O)N(C)C)c2C1 | – | 7 nM | – |
| Cc1ccccc1NC(=O)Oc1ccc2c(c1)[C@]1(C)CCN[C@@H]1N2 | 2.92 | 830 nM | – |
| CNC(=O)Oc1ccc2c(c1)[C@@]1(C)CCN(C)C1N2 (stereo partly drawn) | 1.75 | – | – |
| CN1CC[C@]2(C)c3cc(OC(=O)Nc4ccccc4)ccc3NC12 (stereo partly drawn) | 3.75 | – | – |
| C[C@H](c1cccc(OC(=O)N(C)C)c1)N1CCCCC1 | – | 32 nM | – |
| Cc1cc(C)c(NC(=O)Oc2ccc3c(c2)[C@]2(C)CCN(C)[C@@H]2N3C)c(C)c1 | 3.11 | – | – |
| Cc1ccc(NC(=O)Oc2ccc3c(c2)[C@]2(C)CCN(C)[C@@H]2N3C)c(C)c1 | 1.15 | – | – |
| CNC(=O)Oc1ccc2c(c1)c(C)cn2Nc1ccncc1F | – | 100 nM | – |
| CC(C)c1ccc(NC(=O)Oc2ccc3c(c2)C2(C)COC(O3)O2)cc1 (stereo not drawn) | 3.63 | 4300 nM | – |
| Cc1ccccc1NC(=O)Oc1ccc2c(c1)[C@]1(C)CCN(Cc3ccccc3)C1N2Cc1ccccc1 (stereo partly drawn) | 3.25 | – | – |

| Compound | logIC50 (Acetylcholinesterase [1]) | IC50 (Acetylcholinesterase [2]) | inhibition (Caenorhabditis elegans) |
| --- | --- | --- | --- |
| CNC(=O)Oc1ccc2c(c1)[C@]1(C)CCN(Cc3ccccc3)[C@@H]1N2Cc1ccccc1 | 3.55 | 3560 nM | – |
| CCc1cccc(CC)c1NC(=O)Oc1ccc2c(c1)[C@]1(C)CCN(C)[C@@H]1N2C | 2.84 | 690 nM | – |
| CNC(=O)Oc1ccc2c(c1)[C@]1(C)CCNC1N2 (stereo partly drawn) | 3.17 | – | – |
| CCNC(=O)Oc1ccc2c(c1)C1(C)COC(C1)O2 (stereo not drawn) | 2.56 | – | – |
| CC(C)c1ccc(NC(=O)Oc2ccc3c(c2)[C@]2(C)CCN(C)C2N3)cc1 (stereo partly drawn) | 3.31 | – | – |
| CC(C)c1ccccc1NC(=O)Oc1ccc2c(c1)[C@]1(C)CCN(C)[C@@H]1N2C | 1.18 | – | – |
| CN1CC[C@@]2(C)c3cc(OC(=O)Nc4ccccc4)ccc3N(C=O)[C@@H]12 | 2.52 | 330 nM | – |
| CNC(=O)Oc1ccc2c(c1)SC[C@@H]1CCN(C)[C@H]21 | – | 8.11 nM | – |
| CC(C)c1ccc(NC(=O)Oc2ccc3c(c2)[C@]2(C)CCNC2N3C)cc1 (stereo partly drawn) | 2.51 | – | – |
| Cc1ccccc1NC(=O)Oc1ccc2c(c1)[C@]1(C)CCN(CCc3ccccc3)C1N2C (stereo partly drawn) | 2.74 | – | – |
| Cc1ccccc1NC(=O)Oc1ccc2c(c1)[C@]1(C)CCN(C)[C@@H]1N2 | 1.6 | 40 nM | – |
| CC(C)c1ccc(NC(=O)Oc2ccc3c(c2)[C@]2(C)CCO[C@@H]2N3C)cc1 | 3.59 | – | – |
| CCc1ccccc1NC(=O)Oc1ccc2c(c1)[C@]1(C)CCN(C)[C@@H]1N2C | 1 | – | – |
| Cc1cccc(C)c1NC(=O)Oc1ccc2c(c1)[C@]1(C)CCN(C)[C@@H]1N2C | 2.89 | – | – |
| CCNC(=O)Oc1ccc2c(c1)C1(C)COC(O2)O1 (stereo not drawn) | 2.59 | 387 nM | – |
| Cc1ccccc1NC(=O)Oc1ccc2c(c1)[C@]1(C)CCO[C@@H]1N2C | 1.11 | – | – |
| CN1CC[C@@]2(C)c3cc(OC(=O)Nc4ccccc4)ccc3N(Cc3ccccc3)[C@@H]12 | 2.39 | 245 nM | – |
| CCCCCCNC(=O)Oc1ccc2c(c1)CCCN2Cc1ccccc1 | – | – | Active |
